{"source": "patent US12233129B2", "about": "“Methods and compositions for the treatment of cancer” (priority 2019, dated 2025)", "assay_type_in_all_cases": "cell-based, human", "key": {"[1]": {"system": "SW-48 (WT-p53) colon cancer cells", "assay": "Cell viability / clonogenic survival with and without mot-2 inhibitor MKT-077", "design": "dose or concentration left out as unconfirmed", "procedure": "We decided to confirm whether VTD-induced tumor suppression is indeed mediated via the UBXN2A-mot-2-p53 axis (FIG. 18H). After initial verification with WB (FIG. 18A), HCT-116 (p53+/+ and p53 −/−) and LoVo were treated with VTD for 24, 48, and 72 hours (FIG. 18B-D). […] We defined this phenomenon as a delayed cytotoxic response, since it occurs through UBXN2A transcription, as previously described for other anti-cancer agents. […] In the second set of experiments, we treated two stable UBXN2A silenced clones of HCT-116 along with controls with VTD. […] Staurosporine-treated cells were used as a positive control (S4F). […] Finally, to understand the contribution of mot-2 to the anti-cancer mechanism of VTD, we used a mot-2 inhibitor known as MKT-077 [7] along with VTD in well-differentiated SW-48 (WT-p53) colon cancer cells for 72 hours. Due to the critical role of mot-2 in the mitochondria, we could not use a silencing strategy for mot-2 in this set of experiments.\nFIG. 18: Veratridine (VTD) functions via the UBXN2A-mot-2-p53 axis. (A) WB confirmed the presence and the absence of p53 protein in HCT-116 p53^(+/+) and HCT-116 p53^(−/−) cancer cell lines, respectively. […] (F) In another set of experiments, UBXN2A-silenced cells were treated with VTD (100, 200, and 300 μM) for 24 hours. Cells were then labelled with Sytox Red followed by flow cytometry analysis. […] (G) SW48 well-differentiated colon cancer cells with WT-p53 were treated with MKT-077 (5 mg/ml), an mot-2 inhibitor, along with VTD for 72 hours. […] (H) This flowchart recapped the sequence of proteins which activate and function upon VTD exposure to decrease cell viability. The data is shown as mean±SEM of three independent experiments (n=3) in triplicate where *p<0.05 using Benferroni's modified student's t-test."}, "HCT-116": {"system": "HCT-116", "conditions": "10 days", "procedure": "(§1) Because colon cancer cells develop resistance to chemotherapy after an initial response, we decided to investigate whether VTD can potentiate the cytotoxic effect of 5-FU when cells receiving long-term therapy mimicking the in vivo therapy. Cells were treated with VTD for 10 days.\n(§2) Based on the significant effect of long-term exposure in LoVo and U2OS, we hypothesized that VTD could be a potential complementary strategy alongside 5-FU, an effective drug with a high rate of resistant events in colon tumors. To answer this question, we first determined the minimum concentration of 5-FU that has no effect or a very mild effect on cell viability after 10 days' exposure in three cell lines HCT-116, LoVo, and U2OS (data not shown). We performed the 10 days' treatment using a combination of a low dose of VTD (50 μM or 100 μM) plus a suboptimal dose of 5-FU (1 μM or 5 μM).\n(§3) FIG. 20: Sensitization of colon cancer cells to a long-term suboptimal dose of 5-fluorouracil exposure when combined with VTD. (A-D) (A) HCT-116, (B) LoVo, (C) SW-480, and (D) U2OS were treated with VTD (10-300 μM) for 10 days. […] (E-G) (E) HCT-116, (F) LoVo, and (G) U-2OS were treated with suboptimal doses of 5-FU and VTD (50 and 100 μM) for 10 days. […] (H-I) A series of flow cytometry assays using an antibody against the CD44 cancer stem cell marker illustrated that VTD can target CD44+ colon cancer stem cells and eventually eliminate them in a dose-dependent manner, implicating VTD as a potential cancer stem cell-targeting therapy. (J) Tumor tissue lysates from 48 patients with colon cancer along the matched adjacent normal colon tissue lysates were probed with anti-UBXN2A and anti-Actin antibodies, followed by quantitation and normalization of signals. […] (I) The proposed mechanism action of VTD. VTD increases the expression of UBXN2A, which releases the p53 from mot-2's sequestration and, together with standard chemotherapy, can cause an effective tumor suppression."}, "U2OS": {"system": "U2OS", "conditions": "10 days", "procedure": "as §1, §2, §3"}, "SW480": {"system": "SW480", "assay": "Long-term (10 days) exposure colony formation / cell viability", "conditions": "VTD 10-300 μM, mutant p53", "procedure": "as §1, §3"}, "[2]": {"conditions": "VTD 50 or 100 μM plus 5-FU 1 or 5 μM"}}, "note": "Entries after “also recorded” stand apart in the source; their conditions may differ."}
{"smiles": "COc1ccc(C(=O)O[C@H]2CC[C@@]3(C)[C@@H]4CC[C@H]5[C@]6(O)C[C@H](O)[C@@]7(O)[C@@H](CN8C[C@@H](C)CC[C@H]8[C@@]7(C)O)[C@]6(O)C[C@@]53O[C@]24O)cc1OC", "note": "[VTD, Veratridine]", "values": [{"measurement": "cell viability / colony number", "setting": "[1]; VTD alone, 72 hours", "result": "significantly decreased cell viability in a dose-dependent manner; also recorded: signifcantly decreases the colony number"}, {"measurement": "cell viability / colony number", "setting": "[1]; VTD with mot-2 inhibitor MKT-077, 72 hours", "result": "no significant effect on cell viability"}, {"measurement": "cell viability, long-term exposure", "setting": "HCT-116; VTD 10-300 μM", "result": "only responded to a high concentration of VTD"}, {"measurement": "cytotoxic effect of suboptimal 5-FU in presence of VTD", "setting": "HCT-116; [2]", "result": "significantly potentiated the cytotoxic effect of the suboptimal dose of 5-FU"}, {"measurement": "cell viability, long-term exposure", "setting": "U2OS; VTD 10-300 μM", "result": "significant decrease in cell viability in a dose-dependent manner"}, {"measurement": "cytotoxic effect of suboptimal 5-FU in presence of VTD", "setting": "U2OS; [2]", "result": "significantly potentiated the cytotoxic effect of the suboptimal dose of 5-FU"}, {"measurement": "cell viability, long-term exposure", "setting": "SW480", "result": "no response"}]}
